Assay results from patent US7122679B2, “Multicyclic compounds and the use thereof” (Cephalon, Inc., priority 2000, dated 2006).

Biological target: recombinant human PARP (Homo sapiens, UniProt P09874)
Experiment: PARP activity: transfer of radiolabeled ADP-ribose units from [32P]NAD+ to a protein acceptor
Format: biochemical
Conditions: Table 3
Description: PARP activity was monitored by transfer of radiolabeled ADP-ribose units from [^32P]NAD^+ to a protein acceptor such as histone or PARP itself. […] The reactions were initiated by the addition of 100 μM NAD^+ supplemented with 2 uCi [^32P]NAD^+/mL and maintained at room temperature for 12 minutes. Assays were terminated by the addition of […] and the radiolabeled precipitate was collected on a 96-well filter plate (Millipore, MADP NOB 50), washed with 25% TCA. The amount of acid-insoluble radioactivity, corresponding to polyADP-ribosylated protein, was quantitated in a Wallac MicroBeta scintillation counter.
Single-point inhibition data were calculated by comparing PARP, VEGFR2, or MLK3 activity in the presence of inhibitor to activity in the presence of DMSO only. Inhibition curves for compounds were generated by plotting percent inhibition versus log10 of the concentration of compound. IC50 values were calculated by nonlinear regression using the sigmoidal dose-response (variable slope) equation in GraphPad Prism as follows: y=bottom+(top−bottom)/(1+10^(logIC^50^−x)*Hillslope) where y is the % activity at a given concentration of compound, x is the logarithm of the concentration of compound, bottom is the % inhibition at the lowest compound concentration tested, and top is the % inhibition at the highest compound concentration examined. […]

Sequence of recombinant human PARP (P09874 whole entry): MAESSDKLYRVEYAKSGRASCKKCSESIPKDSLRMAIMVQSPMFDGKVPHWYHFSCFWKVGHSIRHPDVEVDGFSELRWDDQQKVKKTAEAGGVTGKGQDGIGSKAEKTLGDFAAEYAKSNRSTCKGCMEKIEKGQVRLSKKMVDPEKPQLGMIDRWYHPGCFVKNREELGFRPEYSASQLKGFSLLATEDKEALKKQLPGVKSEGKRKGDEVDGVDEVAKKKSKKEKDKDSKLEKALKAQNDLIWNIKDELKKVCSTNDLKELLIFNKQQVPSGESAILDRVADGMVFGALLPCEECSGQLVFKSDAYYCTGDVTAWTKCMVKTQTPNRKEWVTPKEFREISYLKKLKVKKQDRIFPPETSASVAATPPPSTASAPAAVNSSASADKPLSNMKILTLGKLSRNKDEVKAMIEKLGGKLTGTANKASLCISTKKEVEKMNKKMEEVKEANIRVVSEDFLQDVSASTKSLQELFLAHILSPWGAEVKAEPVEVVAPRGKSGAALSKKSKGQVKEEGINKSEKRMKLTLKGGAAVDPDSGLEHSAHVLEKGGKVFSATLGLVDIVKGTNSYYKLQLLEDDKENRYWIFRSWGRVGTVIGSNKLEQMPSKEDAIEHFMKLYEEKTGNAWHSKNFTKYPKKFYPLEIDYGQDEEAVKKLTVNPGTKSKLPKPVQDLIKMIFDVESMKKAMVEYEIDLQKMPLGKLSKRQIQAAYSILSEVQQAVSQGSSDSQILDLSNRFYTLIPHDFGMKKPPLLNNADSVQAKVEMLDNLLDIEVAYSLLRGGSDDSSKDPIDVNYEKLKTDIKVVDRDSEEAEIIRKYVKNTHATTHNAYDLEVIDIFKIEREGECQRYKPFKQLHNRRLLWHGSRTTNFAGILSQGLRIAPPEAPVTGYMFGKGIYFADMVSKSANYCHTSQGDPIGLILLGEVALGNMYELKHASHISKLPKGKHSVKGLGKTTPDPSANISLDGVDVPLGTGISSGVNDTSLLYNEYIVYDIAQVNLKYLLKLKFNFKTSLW

IC50: 69 nM
SMILES: NCCCCC(N)C(=O)N1C(=O)c2c3c(c4[nH]c5ccc(Br)cc5c4c2C1=O)CCC3 (stereo not shown) [Compound 6e]
